{"source": "patent US20220411448A1", "about": "“CHROMENE-4-ONE DERIVATIVES AS BRAIN-DERIVED NEUROTROPHIC FACTOR (BDNF) MIMETICS” (FLORATEK PHARMA AG, priority 2019, published 2022)", "key": {"[1]": {"tested_on": "primary cultures of cortical neurons", "assay": "Primary neuronal culture viability (MTT assay)", "type": "cell-based, mouse", "details": "primary neuron culture, 24 hours", "description": "For neuronal cultures, primary cultures of cortical neurons were prepared from embryonic day 17 (E17) OF1 mice embryos (Charles River Laboratories) as previously described [Allaman I., Pellerin L., Magistretti P. J. (2004) Glucocorticoids modulate neurotransmitter-induced glycogen metabolism in cultured cortical astrocytes. J. Neurochem. 88, 900-908] or from C57BL/6JRccHsd mice at E18. Animals were sacrificed and embryos were dissected in Calcium and Magnesium free Hanks Balanced Salt Solution (CMF-HBSS) containing 15 mM HEPES and 10 mM NaHCO3, pH 7.2. Embryos were decapitated, skin and skull gently removed and hemispheres were separated. […]\nThe MTT assay was conducted according to manufacturer's instructions (Invitrogen/Molecular Probes, Eugene, Oreg.) and was measured using a plate reader at an absorbance wavelength of 570 nm. Cell survival rate was expressed either as the absorbance values or as optical density (OD), with values calculated as % of controls.\nPrimary neuronal culture viability in the presence of Compound A/SND118 Primary neuron culture was prepared as described and treated with Compound A/SND118 at various concentrations for 24 hours. Cellular viability was measured using MTT assay as described."}, "[2]": {"tested_on": "primary brain cell cultures", "assay": "NAD/NADH cycling assay", "type": "cell-based, mouse", "details": "after 30 min in the presence of the compound", "description": "Cycling assays for nicotinamide adenine dinucleotides was performed as described [Yang J, et al, Lactate promotes plasticity gene expression by potentiating NMDA signaling in neurons. Proc Natl Acad Sci USA. 2014. 111(33):12228-33]. Briefly, cells were rinsed two times with ice-cold PBS, harvested in 400 μL ice-cold carbonate-bicarbonate buffer (100 mM Na2CO3 and 20 mM NaHCO3 containing 10 mM nicotinamide to inhibit NADase), and frozen at −80° C. Cell membranes were lysed by heat shock in a 37° C. water bath and immediately chilled on ice. Extracts were centrifuged at 12,000×g for 30 min at 4° C. and half of the supernatant was heated at 60° C. for 30 min to denature NAD. Twenty-five microliters of the heated extract (containing NADH only), 100 μL of the unheated extract (containing NAD and NADH), and 50 μL of standards of known NADH (Roche) concentrations (ranging from 0.0625 to 1 μM) dissolved in carbonate bicarbonate buffer were loaded onto a 96-well microplate along with blanks (carbonate-bicarbonate buffer). Volumes were adjusted to 100 μL with carbonate-bicarbonate buffer and 150 μL of a reaction buffer was added into each well. […] The absorbance was followed spectrophotometrically at 560 nm every 15 s over a 5-min period (Safire 2; Tecan). Blank values were subtracted from all samples and NAD amounts were calculated by subtracting NADH values from total NAD+NADH values."}, "TNF-α": {"tested_on": "TNF-α", "assay": "LPS stimulation of BV-2 microglia: TNF-α", "type": "cell-based, murine", "details": "between 0.3 and 3 μM, BV2, LPS 500 ng/ml, 24 h", "description": "The murine microglial cell line BV-2 was grown in DMEM medium supplemented with 10% FCS, 1% penicillin/streptomycin and 2 mM L-glutamine (culture medium). For LPS stimulation assay, 10000 BV-2 cells per well (uncoated 96 well plates) were plated and after 24 hours, medium was changed to serum-free treatment medium (DMEM, 2 mM L-glutamine) and cells were maintained in treatment medium for the remaining culture period. 1 h after changing cells to treatment medium, the test items were added 1 hour before LPS stimulation (Sigma-Aldrich; L6529; 1 mg/ml stock in ddH2O, final concentration in well: 500 ng/ml (dilutions in medium)). Cells treated with vehicle, cells treated with LPS alone, as well as cells treated with LPS plus reference dexamethasone at 10 μM item served as controls.\nFollowing 24 h of stimulation, cell supernatants were collected for the NO, and cytokine measurements. Levels of 2 cytokines (TNF-α, IL-6) were measured by an immunosorbent assay (U-PLEX Custom […] Cytokine, Mesoscale Discovery) according to the instructions of the manufacturer and evaluated in comparison to calibration curves provided in the kit. […] Absorbance was measured at 570 nm. Nitrosative stress was evaluated in the study samples in comparison to a NaNO2 standard curve. […]"}, "[3]": {"tested_on": "human hepatocytes from pooled donor lot", "assay": "Hepatic toxicity: cytotoxicity by LDH leakage", "type": "cell-based", "details": "1 to 100 μM, 24 h exposure", "description": "Cryopreserved human hepatocytes from pooled donor lot (Bioreclamation IVT) were seeded on collagen I coated 96-well plates (Corning Biocoat) at 0.55×10^5 cells per well in 120 μl InVitroGRO™ CP medium (BioIVT), including additives Torpedo Antibiotic mix (BioIVT). After cell attachment (4-6 hours post seeding) cell culture medium was replaced with fresh medium and incubated for 72 hours at 37° C. under 5% CO2. Thereafter, hepatocytes were exposed to test or control compounds in 100 μl of InVitroGRO™ HI medium, including additives Torpedo Antibiotic mix at concentrations presented below. Cytotoxicity and cell viability were evaluated based on LDH release in medium and ATP content in the cells after 24 hours exposure phase.\nCytotoxicity potency of test compounds SND118, SND121, SND122 and SND123 was assayed in human hepatocytes from pooled donor lot at three concentrations; 1, 10 and 100 μM. Cytotoxicity was assayed from medium samples after 24 h exposure period with test compounds by measuring membrane integrity (LDH leakage), coupled to fluorescent signal. In parallel, cell viability was assayed by the means of ATP content, indicating the metabolically competent cell activity. LDH and ATP assay kits were sourced from Promega. ATP content was measured based on luciferase catalysed reaction generating stable bioluminescent signal. […]"}}, "data": [{"smiles": "O=c1cc(-c2ccc(CCCC[P+](c3ccccc3)(c3ccccc3)c3ccccc3)cc2)oc2c(O)c(O)ccc12", "note": "[SND118, 4-[4-(7,8-dihydroxy-4-oxo-chromen-2-yl)phenyl]butyltriphenylphosphonium bromide]", "values": [{"measurement": "Cellular viability (MTT): concentration up to which not toxic", "setting": "[1]", "result": "≤ 10", "unit": "µM"}, {"measurement": "production of NADH (NAD/NADH ratio)", "setting": "[2]", "result": "increased production of ATP and NADH"}, {"measurement": "level of TNF-α in response to LPS stimulation", "setting": "TNF-α", "result": "significantly decreased"}, {"measurement": "Cytotoxicity (LDH leakage)", "setting": "[3]", "result": "7-10%"}]}]}
